What was measured:
[1] = Volume of distribution at steady state in Sprague-Dawley rat at 1 mg/kg, iv; format: ADME, organism-based; details: in vivo, read-out: Vdss
Rattus norvegicus [2] = assay: Potency index, ratio of eplerenone ED50 to compound ED50 for antagonist activity MR in po dosed Sprague-Dawley rat assessed as reversal of aldosterone induced decrease in urinary Na+/K+ ratio; format: functional
Rattus norvegicus [3] = assay: (§1) Organ protective activity in aldosterone-induced uninephrectomized Sprague-Dawley rat model assessed as degeneration of arteries and perivascular fibrosis in heart by measuring pathological lesion score at 3 mg/kg/day by sirius red and H and E staining based histological analysis (reference value: 1.6 +/- 0.4); format: functional
Rattus norvegicus [4] = assay: as §1, with “myocardial necrosis” for “degeneration of arteries”, “interstitial cellular infiltration” for “perivascular fibrosis”, “10” for “3”, “1.7” for “1.6”, “0.3)” for “0.4)”; format: functional
Rattus norvegicus [5] = assay: Organ protective activity in aldosterone-induced uninephrectomized Sprague-Dawley rat model assessed as interstitial cellular infiltration in kidney by measuring pathological lesion score at 1 mg/kg/day by PAS and H and E staining based histological analysis (reference value: 1.4 +/- 0.4); format: functional
Glucocorticoid receptor = biological target: T1, Glucocorticoid receptor (Homo sapiens, UniProt P04150); assay: biochemical
T1 sequence (P04150 whole entry): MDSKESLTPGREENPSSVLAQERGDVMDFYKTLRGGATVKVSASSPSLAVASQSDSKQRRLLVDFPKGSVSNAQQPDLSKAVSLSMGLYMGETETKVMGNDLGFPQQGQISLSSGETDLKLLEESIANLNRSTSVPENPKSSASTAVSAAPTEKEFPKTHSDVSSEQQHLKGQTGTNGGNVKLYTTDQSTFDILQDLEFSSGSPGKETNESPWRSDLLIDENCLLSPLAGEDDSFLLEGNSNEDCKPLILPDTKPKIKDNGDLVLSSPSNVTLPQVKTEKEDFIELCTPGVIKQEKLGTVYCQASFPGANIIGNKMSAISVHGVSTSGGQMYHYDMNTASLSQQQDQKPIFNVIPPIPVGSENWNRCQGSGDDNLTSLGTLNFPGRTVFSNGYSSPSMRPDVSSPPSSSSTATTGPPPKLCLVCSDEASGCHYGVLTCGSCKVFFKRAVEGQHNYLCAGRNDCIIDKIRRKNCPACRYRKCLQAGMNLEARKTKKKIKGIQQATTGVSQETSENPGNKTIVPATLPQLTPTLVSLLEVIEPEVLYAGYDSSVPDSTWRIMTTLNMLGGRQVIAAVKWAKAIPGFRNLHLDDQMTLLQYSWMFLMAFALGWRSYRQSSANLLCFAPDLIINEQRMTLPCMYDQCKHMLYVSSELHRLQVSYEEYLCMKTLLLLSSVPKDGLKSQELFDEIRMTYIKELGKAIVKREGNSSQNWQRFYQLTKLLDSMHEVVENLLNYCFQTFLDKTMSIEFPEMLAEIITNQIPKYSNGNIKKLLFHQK
Description: Displacement of [3H]-dexamethasone from recombinant full length human glucocorticoid receptor expressed in baculovirus infected insect cells incubated overnight by liquid scintillation counting analysis

Rattus norvegicus [6] = assay: Organ protective activity in aldosterone-induced uninephrectomized Sprague-Dawley rat model assessed as myocardial necrosis and interstitial cellular infiltration in heart by measuring pathological lesion score at 1 mg/kg/day by sirius red and H and E staining based histological analysis (reference value: 1.7 +/- 0.3); format: functional
[7] = AUC (0 to infinity) in Sprague-Dawley rat at 1 mg/kg, iv; format: ADME, organism-based; design: time infinity, dose 1 mg/kg, route iv; details: in vivo
Rattus norvegicus [8] = assay: Organ protective activity in aldosterone-induced uninephrectomized Sprague-Dawley rat model assessed as glomerular mesangial proliferation in kidney by measuring pathological lesion score at 10 mg/kg/day by PAS and H and E staining based histological analysis (reference value: 1.9 +/- 0.5); format: functional
Rattus norvegicus [9] = assay: Organ protective activity in aldosterone-induced uninephrectomized Sprague-Dawley rat model assessed as renal tubular regeneration in kidney by measuring pathological lesion score at 3 mg/kg/day by PAS and H and E staining based histological analysis (reference value: 1.7 +/- 0.5); format: functional
Estrogen receptor beta = Estrogen receptor beta (Homo sapiens, UniProt Q92731); assay: biochemical
Chain of Estrogen receptor beta (Q92731 whole entry): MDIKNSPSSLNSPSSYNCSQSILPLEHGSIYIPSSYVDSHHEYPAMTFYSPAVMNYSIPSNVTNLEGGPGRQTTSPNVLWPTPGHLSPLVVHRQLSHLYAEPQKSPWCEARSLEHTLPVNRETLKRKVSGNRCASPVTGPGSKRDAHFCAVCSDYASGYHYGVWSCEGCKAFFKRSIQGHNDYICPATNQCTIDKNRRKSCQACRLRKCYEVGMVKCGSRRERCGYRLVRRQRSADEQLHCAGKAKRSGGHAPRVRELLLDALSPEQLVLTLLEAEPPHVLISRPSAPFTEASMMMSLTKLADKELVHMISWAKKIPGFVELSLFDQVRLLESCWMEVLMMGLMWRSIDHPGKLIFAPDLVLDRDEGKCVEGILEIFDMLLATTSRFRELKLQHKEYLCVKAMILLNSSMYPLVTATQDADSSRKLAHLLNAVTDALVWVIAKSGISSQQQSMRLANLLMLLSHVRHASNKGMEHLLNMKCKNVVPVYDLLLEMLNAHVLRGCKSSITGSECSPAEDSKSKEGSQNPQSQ
Description: Displacement of [3H]-estradiol from recombinant full-length human estrogen beta receptor expressed in baculovirus infected insect cells incubated overnight by liquid scintillation counting analysis

Androgen receptor = biological target: T2, Androgen receptor (Homo sapiens, UniProt P10275)
T2 sequence (P10275 whole entry): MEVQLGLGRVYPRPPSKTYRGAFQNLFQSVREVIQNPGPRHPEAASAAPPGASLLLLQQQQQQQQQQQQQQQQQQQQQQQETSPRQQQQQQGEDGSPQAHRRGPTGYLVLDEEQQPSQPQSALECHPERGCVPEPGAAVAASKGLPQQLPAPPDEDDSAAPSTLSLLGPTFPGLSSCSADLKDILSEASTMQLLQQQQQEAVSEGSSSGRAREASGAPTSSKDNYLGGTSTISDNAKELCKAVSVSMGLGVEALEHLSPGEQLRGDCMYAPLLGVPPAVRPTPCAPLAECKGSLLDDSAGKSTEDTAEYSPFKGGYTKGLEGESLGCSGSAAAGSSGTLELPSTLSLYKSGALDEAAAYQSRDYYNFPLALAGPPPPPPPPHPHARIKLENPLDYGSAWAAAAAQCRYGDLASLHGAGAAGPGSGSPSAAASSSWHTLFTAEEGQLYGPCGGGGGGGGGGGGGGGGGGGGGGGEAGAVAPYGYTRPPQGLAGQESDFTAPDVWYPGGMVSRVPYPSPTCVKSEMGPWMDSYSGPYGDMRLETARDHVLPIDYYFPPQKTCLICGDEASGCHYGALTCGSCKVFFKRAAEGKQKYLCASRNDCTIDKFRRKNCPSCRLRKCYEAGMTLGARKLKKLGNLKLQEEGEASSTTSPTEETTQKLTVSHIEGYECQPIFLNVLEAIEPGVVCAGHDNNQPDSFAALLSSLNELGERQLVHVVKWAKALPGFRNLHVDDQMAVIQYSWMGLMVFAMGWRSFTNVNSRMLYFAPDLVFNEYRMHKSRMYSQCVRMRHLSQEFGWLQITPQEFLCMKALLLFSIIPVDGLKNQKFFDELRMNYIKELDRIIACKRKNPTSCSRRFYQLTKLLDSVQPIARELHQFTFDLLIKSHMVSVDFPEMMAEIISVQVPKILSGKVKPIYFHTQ
Description: Displacement of [3H]-methyltrienolene from human androgen receptor incubated overnight by liquid scintillation counting analysis

Rattus norvegicus [10] = assay: as §1, with “1” for “3”; format: functional

In the case of CC1(C)Oc2cc(NS(C)(=O)=O)ccc2N(c2ccc(F)cc2)C1=O [MT-3995], the Vd [1] is reported as 1.08 L/kg, the “fold change (FC)” value (Rattus norvegicus [2]) is reported as 10 and the Activity (Rattus norvegicus [3]) is reported as 0.4. The Activity (Rattus norvegicus [4]) was 0.1, the Activity (Rattus norvegicus [5]) was 1.1 and the IC50 (Glucocorticoid receptor) was > 100 µM. It also gave an Activity (Rattus norvegicus [6]) of 1.4, an AUC(0-inf) [7] of 10200 ng·h/mL and an Activity (Rattus norvegicus [8]) of 0. For the same compound, the Activity (Rattus norvegicus [9]) was 0.3, the IC50 (Estrogen receptor beta) was > 100 µM and the IC50 (Androgen receptor) was > 100 µM. It also gave an Activity (Rattus norvegicus [10]) of 1.1.
